Data taken from patent publication US10188665B2, “Ocular therapy using glucocorticoid derivatives selectively penetrating posterior segment tissues” (Allergan, Inc., priority 2005, dated 2019).

How the values were obtained:
[1] = Treatment of cystic macular edema with a GD implant (Example 4); assay type: in vivo, human
Procedure: A person diagnosed with cystic macular edema treated by administration of a biodegradable drug delivery system administered to each eye of the patient. […] A similar implant is administered subconjunctivally to the patient's right eye. […] No increase in intraocular pressure is seen one week after administration.

[2] = tested on: VEGF-induced BRB breakdown (retinal leakage); assay: VEGF-induced blood retinal barrier (BRB) breakdown, scanning ocular fluorophotometry of fluorescein leakage; assay type: in vivo, rabbit; conditions: for Inhibition of VEGF-induced BRB breakdown (fluorescein leakage into posterior segment): rabbit eye, 1 mg (100 μl of 10 mg/ml suspension) intravitreal, then intravitreal VEGF, read 48 h later; for Block of VEGF-induced BRB breakdown (retinal leakage): corticosteroid administered systemically or intravitreally
Procedure: (§1) Recombinant vascular endothelial growth factor (VEGF) was obtained from a supplier (R&D Systems). Female Dutch Belt rabbits were anaesthetized with isoflurane inhalation and topical 0.5% proparacaine hydrochloride, and intravitreal injection of one eye with 500 ng VEGF in sterile phosphate buffered saline (PBS) containing 0.1% bovine serum albumin was performed using a 28 guage ½ inch needle. The other eye is given the same volume of the vehicle, without the VEGF.
(§2) The extent of VEGF-induced BRB and BAB breakdown of the blood retinal barrier and the blood aqueous barrier was measured by scanning ocular fluorophotemetry (Fluorotron Master, Ocumetrics Inc.); at various times following intravitreal injection. In this model a fluorescent label is administered intravenously, following by determination of the amount of fluorescenin in the anterior and posterior segment and an indication of iridial and retinal leakage, respectively.
(§3) Sodium fluorescein in 1 ml saline was injected via the marginal ear vein at a concentration of 50 mg/kg, and ocular fluorescein levels in the vitreoretinal chamber and the anterior chamber was determined 50 minutes later.
(§4) Ten milligrams of each compound is added to 1 ml of sterile phosphate-buffered saline (PBS; ph 7.4). At day 0, 100 ml of a 10 mg/ml suspension of each steroid is injected into the vitreous of a rabbit eye. The PBS vehicle is injected into the other eye. VEGF is then injected at a pre-determined time (one month) thereafter, and BRB and BAB breakdown were measured by scanning ocular fluorophotometry 48 hrs later as described in Edelman et al., EXP.

[3] = Treatment of wet ARMD with a GD composition (Example 5); assay type: in vivo, human; conditions: person, intravitreal 100 μl hyaluronic acid solution with about 1000 μg crystals; within one month
Procedure: A person with wet age-related macular degeneration is treated with an intravitreal injection of 100 μl of a hyaluronic acid solution containing about 1000 μg of fluticasone propionate crystals in suspension.

[4] = tested on: VEGF-induced BAB breakdown (iris leakage); assay: VEGF-induced blood aqueous barrier (BAB) breakdown, scanning ocular fluorophotometry of fluorescein leakage; assay type: in vivo, rabbit; conditions: for Inhibition of VEGF-induced BAB breakdown (fluorescein leakage into anterior segment): rabbit eye, 1 mg (100 μl of 10 mg/ml suspension) intravitreal, then intravitreal VEGF, read 48 h later; for Block of VEGF-induced BAB breakdown (iris leakage): corticosteroid administered systemically or intravitreally
Procedure: as §1, §2, §3, §4

[5] = rabbit, 500 ng VEGF intravitreal, 48 h, 50 min after i.v. fluorescein

Compound | Inhibition of VEGF-induced BRB breakdown (fluorescein leakage into posterior segment) [2] | Block of VEGF-induced BRB breakdown (retinal leakage) ([2]; rabbit) | Inhibition of VEGF-induced BAB breakdown (fluorescein leakage into anterior segment) [4] | Block of VEGF-induced BAB breakdown (iris leakage) ([4]; rabbit) | further results
CCC(=O)OCC(=O)[C@@]1(OC(=O)CC)[C@@H](C)C[C@H]2[C@@H]3CCC4=CC(=O)C=C[C@]4(C)[C@@]3(Cl)[C@@H](O)C[C@@]21C [Beclomethasone dipropionate, beclomethasone dipropionate] |  |  |  |  | Appearance of retina ([1]; person, implant of about 1000 μg PLGA and about 1000 μg drug, intravitreal left eye, subconjunctival right eye, about 3 months after surgery): appears normal; Degeneration of the optic nerve ([1]; same patient, about 3 months after surgery): appears to be reduced; Intraocular pressure ([1]; same patient, one week after administration): No increase; Inhibition of VEGF-induced BRB breakdown (fluorescein leakage into posterior segment) ([2]; listed as beclomethasone 17,21-dipropionate): completely blocks
CCC(=O)O[C@]1(C(=O)SCF)[C@H](C)C[C@H]2[C@@H]3C[C@H](F)C4=CC(=O)C=C[C@]4(C)[C@@]3(F)[C@@H](O)C[C@@]21C [Fluticasone propionate, fluticasone propionate] | completely blocks |  |  |  | Rate of neovascularization and related inflammation [3]: acceptable reduction
CC1(C)O[C@@H]2C[C@H]3[C@@H]4CCC5=CC(=O)C=C[C@]5(C)[C@@]4(F)[C@@H](O)C[C@]3(C)[C@]2(C(=O)CO)O1 [Triamcinolone acetonide, triamcinolone acetonide] | completely inhibited | completely blocked | completely inhibited | completely blocked | 
C[C@H]1C[C@H]2[C@@H]3CCC4=CC(=O)C=C[C@]4(C)[C@@]3(Cl)[C@@H](O)C[C@]2(C)[C@@]1(O)C(=O)CO [beclomethasone] | inhibited | completely blocked | inhibited | completely blocked | 
VEGF |  |  |  |  | Increase in fluorescein contained in the vitreous versus normal untreated eyes [2, 5]: approximately 18 fold; Increase in fluorescein contained in the aqueous versus normal untreated eyes [4, 5]: approximately 6 fold
